Columns and labels:
[1] = Fecal 5-HT levels after 5-HT in drinking water (ELISA); assay type: in vivo, mice
Experimental: (§1) Water was supplemented with 5-HT (Sigma Aldrich) at 1.5 mg/ml provided ad libitum to mice for 2 weeks. The amount of water consumed and mouse weight were measured on days 3, 7, 10 and 14 of treatment. Mice were sacrificed one day after treatment for 5-HT assays and fecal 16S rDNA profiling was conducted as described below.
Blood samples were collected by cardiac puncture and spun through SST vacutainers (Becton Dickinson) for serum separation. […] Serotonin levels were detected by ELISA according to the manufacturer's instructions (Eagle Biosciences). Readings from tissue samples were normalized to total protein content as detected by BCA assay or the 660 nm Protein Assay (Thermo Pierce).
SPF mice were treated with ampicillin, gentamicin, neomycin and vancomycin (AGNV) in their drinking water at 0.5 g/L for 4 days. […] 5-HT drinking water concentration was determined by calculating the same molar concentration as Flx in drinking water. […] Three days after the final gavage, mice were euthanized by CO2 and the small and large intestines were collected for fluorescence in situ hybridization (FISH) as described below and lumenal contents from the small and large intestines were harvested for 16S rDNA sequencing. […] Tissues were collected and analysed 3 d after the final gavage. […]

[2] = system: gut microbiota (Clostridia); test: Fecal 16S rDNA microbiota profiling after oral 5-HT supplementation; assay type: in vivo, mice
Experimental: as §1
(§2) Bacterial genomic DNA was extracted from mouse fecal samples using the MoBio PowerSoil Kit. The library was generated according to methods adapted from Capraso J. G., et al., PNAS 108 Suppl 1, 4516-4522 (2011). The V4 regions of the 16S rDNA gene were PCR amplified using individually barcoded universal primers and 30 ng of the extracted genomic DNA. The PCR reaction was set up in triplicate, and the PCR product was purified using the Qiaquick PCR purification kit (Qiagen). In total, 250 ng of purified PCR product from each sample was pooled and sequenced by Laragen, Inc. using the Illumina MiSeq platform and 2×250 bp reagent kit for paired-end sequencing. Operational taxonomic units (OTUs) were chosen by open reference OTU picking based on 97% sequence similarity to the Greengenes 13_5 database. Taxonomy assignment and rarefaction were performed using QIIME1.8.0. Metagenomes were inferred from closed reference OTU tables using PICRUSt.

[3] = system: Turicibacter sanguinis MOL361; test: T. sanguinis growth curve and viability; assay type: cell-based
Experimental: Scale bars: 10 μm. […] Scale bar denotes 100 um.
Cell density of T. sanguinis at 6, 12, 18, 30, 36, 45 and 48 hours of growth in the presence of 200 uM 5-HT, Flx or both 5-HT and Flx. Treatments were added at the start of culture (e.g. t=0 h).
(§3) Turicibacter sanguinis MOL361 (DSM-14220, DSMZ) was grown in Schaedler's Broth (BD Biosciences) in an anaerobic chamber of 10% carbon dioxide, 5% hydrogen, and balanced nitrogen. Bacteroides thetaiotaomicron (ATCC 29148) was grown in Brain Heart Infusion media (BD Biosciences) supplemented with 5 ug/ml hemin (Frontier Scientific) and 0.5 ug/ml vitamin K1 (Sigma Aldrich) under the same anaerobic conditions. Mouse- and human-derived spore-forming bacterial consortia were isolated by chloroform treatment and propagated in mice.

T. sanguinis [4] = test: APP+ uptake assay in T. sanguinis; assay type: cell-based, Turicibacter sanguinis; details: 200 uM pre-treatment for 30 min
Experimental: (§4) T. sanguinis and B. theta were cultured anaerobically as described above and subcultured for 15-17 h to reach the stationaryphase. Bacterial APP+ transport activity was measured according to the manufacturer's instructions using the Neurotransmitter Transporter Uptake Assay Kit (Molecular Devices). […] Then cells were treated with APP+ for 4 hours at 37° C. Intracellular fluorescence signal was measured at 520 nm using a multimodal plate reader (Biotek Synergy H1). Bacterial suspensions were mounted on slides and imaged using an epifluorescence microscope (EVOS). Images of B. theta were brightened by 90% to resolve fluorescence signal.

CUW_0748 [5] = test: APP+ uptake in B. thetaiotaomicron expressing CUW_0748; assay type: cell-based
Experimental: as §4

CUW_0748 [6] = test: [3H]5-HT uptake in B. thetaiotaomicron expressing CUW_0748; assay type: cell-based
Experimental: The vector was transformed into E. coli with selection using 100 ug/ml ampicillin and conjugated into B. theta using the E. coli helper plasmid RK231 with 50 ug/ml kanamycin selection. E. coli was killed using 200 ug/ml gentamicin and transconjugant strains were selected using 5 ug/ml erythromycin. Successful conjugation and gene expression were confirmed by PCR and qPCR for CUW_0748 in DNA and RNA extracted from B. theta clones. T. sanguinis or B. theta were cultured anaerobically as described above and subcultured for 15-17 h to reach the stationary phase. […] For T. sanguinis, all uptake reactions were performed at room temperature. For B. theta, uptake reactions were performed at either room temperature or 37° C. Uptake reactions were terminated by washing in ice cold Kreb-Ringer's buffer. Washed T. sanguinis was trapped through 0.45 um PVDF filters on MultiScreenHTS plates connected to a vacuum manifold (EMD Millipore). For B. theta, washed cells were either trapped through 0.45-μm PVDF filters or lysed by incubating in TE buffer plus triton and lysozyme. Extracted filters or lysed cells were incubated in 4 ml Filter Count scintillation fluid (Perkin Elmer) for 1 hour at room temp, and radioactivity was measured using a liquid scintillation counter (Beckman LS6500).

T. sanguinis [7] = test: Bacterial transcriptomic analysis of T. sanguinis; assay type: cell-based, Turicibacter sanguinis
Experimental: T. sanguinis was cultured anaerobically as described above and subcultured to mid-log-phase. […] Bacteria were washed with PBS and lysed in TE buffer containing 1.2% Triton X-100 and 15 mg/ml lysozyme. RNA was extracted using the RNAeasy Mini kit with on-column genomic DNA-digest (Qiagen). cDNA synthesis was performed using the qScript cDNA synthesis kit (Quantabio). RNA quality of RIN>8.0 was confirmed using the 4200 Tapestation system (Agilent). rRNA were removed with the Ribo-Zero Bacterial kit (Illumina), RNA was prepared using the TruSeq Stranded RNA kit (Illumina) and 2×75 bp paired end reads were sequenced using the Illumina HiSeq platform by the UCLA Neuroscience Genomics Core. The bacterial RNAseq analysis package Rockhopper was used for quality filtering, mapping against the T. sanguinis PC909 genome and differential expression analysis. […] Heatmaps containing differentially expressed genes with adjusted p<0.05 and coefficient of variation (standard deviation/mean)<3 were generated using the pheatmap package for R. GO term enrichment analysis of differentially expressed genes with adjusted p<0.05 was conducted using DAVID. Functional protein networks were generated with differentially expressed genes with adjusted p<0.05 using STRING. Bacterial FM 4-64 staining and imaging. […] Cells were washed with PBS, fixed in 4% paraformaldehyde, and stained with FM4-64 (5 μg ml−1) and 4′,6-diamidino-2-phenylindole (DAPI; 0.2 μg ml−1) according to the manufacturer's instructions. Cells were wet-mounted on glass slides and cover slips. Images were acquired at 63× using the Zeiss LSM 780 confocal microscope. Images were analysed using Fiji software51 by a researcher blinded to the experimental group. FM 4-64 puncta were counted manually based on circularity and fluorescence intensity. Counts were normalized to cell area, as determined by thresholding of DAPI staining.

T. sanguinis MOL361 [8] = test: Turicibacter colonization of antibiotic-treated mice (FISH, 16S rDNA); assay type: in vivo
T. sanguinis MOL361 [9] = test: 5-HT levels in culture supernatant of T. sanguinis grown in Schaedler broth; assay type: cell-based, Turicibacter sanguinis; details: 200 uM fluoxetine, 0-36 hours of growth
Experimental: as §3

T. sanguinis [10] = test: [3H]NE uptake assay in T. sanguinis; assay type: cell-based, Turicibacter sanguinis; details: 30 min pre-treatment, 200 uM fluoxetine
Experimental: T. sanguinis or B. theta were cultured anaerobically as described above and subcultured for 15-17 h to reach the stationary phase. […] Cells were then incubated with 1 μM tritiated 5-HT (plus 0-500 μM unlabelled 5-HT for dose-dependent assays), NE or Trp (PerkinElmer). For T. sanguinis, all uptake reactions were performed at room temperature. For B. theta, uptake reactions were performed at either room temperature or 37° C. Uptake reactions were terminated by washing in ice cold Kreb-Ringer's buffer. Washed T. sanguinis was trapped through 0.45 um PVDF filters on MultiScreenHTS plates connected to a vacuum manifold (EMD Millipore). For B. theta, washed cells were either trapped through 0.45-μm PVDF filters or lysed by incubating in TE buffer plus triton and lysozyme. Extracted filters or lysed cells were incubated in 4 ml Filter Count scintillation fluid (Perkin Elmer) for 1 hour at room temp, and radioactivity was measured using a liquid scintillation counter (Beckman LS6500).

fecal microbiota = test: Fluoxetine treatment of SPF mice, fecal 16S rDNA sequencing; assay type: in vivo
Experimental: as §2
Fecal samples were harvested on day 0, 1, 4, 7 or 14 of treatment as indicated in figure legends and processed for 16S rDNA sequencing as described above.

[11] = Lipid clinical chemistry analysis of serum; assay type: in vivo; details: antibiotic-treated mice gavaged with T. sanguinis pretreated with 200 μM 5-HT+Flx
From the text: Serum samples were collected from SPF, germfree, Turicibacter-monocolonized or Turicibacter-enriched mice and submitted to Charles River Clinical Pathology for analysis of the lipid species, including total cholesterol, free fatty acids, high-density lipoprotein, low-density lipoprotein and total triglycerides.

T. sanguinis [12] = test: [3H]5-HT uptake assay in T. sanguinis; assay type: cell-based, Turicibacter sanguinis; details: 30 min pre-treatment
[13] = SPF mice gavaged with fluoxetine

NCCc1c[nH]c2ccc(O)cc12 [5-HT, 5-hydroxytryptamine]
increase of fecal 5-HT levels relative to vehicle-treated controls ([1]; SPF mice, 1.5 mg/ml 5-HT in the drinking water for 2 weeks): 642 fold
elevation of fecal 5-HT levels over vehicle ([1]; antibiotic-treated mice, 5-HT 24 μg/ml in drinking water): approximately 6 fold
combined relative abundance of Clostridiales, Clostridiaceae, Ruminococcus and Ruminococcaceae (mean±S.E.M.) ([2]; 5-HT-supplemented mice, fecal microbiota): 86.2±5.8%
increase of combined relative abundance of Clostridiales, Clostridiaceae, Ruminococcus and Ruminococcaceae ([2]; SPF mice, 1.5 mg/ml 5-HT in drinking water 2 weeks, vs SPF mice): 8.4 fold
effect on species of Clostridia in fecal microbiota ([2]; oral 5-HT supplementation, SPF mice): substantially enriched
T. sanguinis survival/viability after short-term (acute) exposure ([3]; 4 h exposure, 200 μM): not affected
effect on APP+ uptake (import) by T. sanguinis (T. sanguinis [4]): partially decreased
effect on APP+ uptake conferred by CUW_0748 (CUW_0748 [5]): inhibited
effect on 1 μM [3H]5-HT uptake conferred by CUW_0748 (CUW_0748 [6]): inhibited
effect on T. sanguinis gene expression pathways vs vehicle (T. sanguinis [7]; 200 uM 5-HT, 4 hr): downregulated the expression of genes that clustered into pathways for cell differentiation, morphogenesis and sporulation
number of bacterial genes with significantly altered expression (T. sanguinis [7]; 4 hr exposure, 200 uM, vs vehicle): 71 genes
differentially expressed genes (q<0.05) downregulated relative to vehicle (T. sanguinis [7]; T. sanguinis treated with 5-HT): 54 genes
T. sanguinis levels/colonization in the small intestine (T. sanguinis MOL361 [8]; antibiotic-treated SPF mice, bacterial pre-treatment plus same treatment in drinking water): detectable T. sanguinis colonization
T. sanguinis competitive colonization, bacterial pre-treatment only (T. sanguinis MOL361 [8]; antibiotic-treated mice, no supplementation in drinking water): promoted its competitive colonization

CNCCC(Oc1ccc(C(F)(F)F)cc1)c1ccccc1 (centres unmarked) [fluoxetine]
effect on decrease of 5-HT levels in the media over time (T. sanguinis MOL361 [9]): prevented
effect on T. sanguinis growth over long-term culture ([3]; 200 uM, Schaedler broth, up to 48 hours): cytostatic effects
effect on APP+ uptake (import) by T. sanguinis (T. sanguinis [4]): partially decreased
effect on bacterial uptake of norepinephrine ([3H]NE) (T. sanguinis [10]): no effect
change in T. sanguinis gene expression in the absence of 5-HT (T. sanguinis [7]; fluoxetine alone): little change
effect on T. sanguinis gene expression compared with 5-HT-treated controls (T. sanguinis [7]; fluoxetine with 5-HT, 4 hr): upregulated the expression of genes encoding proteins relevant to efflux transporters, ABC transporters and sporulation
Turicibacter in fecal microbiota (fecal microbiota; SPF mice gavaged with 10 mg/kg fluoxetine): decreased
Clostridiaceae in fecal microbiota (fecal microbiota; [13]): decreased
bacterial alpha diversity of fecal microbiota (fecal microbiota; [13]): no significant differences
serum triglyceride levels compared with mice colonized with vehicle-treated T. sanguinis [11]: increased

NC[C@H](O)c1ccc(O)c(O)c1 [norepinephrine]
effect on APP+ uptake (import) by T. sanguinis (T. sanguinis [4]): modest, but not statistically significant, effect

COc1cc2c(cc1OC)C1CC(=O)C(CC(C)C)CN1CC2 (centres unmarked) [tetrabenazine]
effect on [3H]5-HT uptake by T. sanguinis (T. sanguinis [12]): not observed
